Assay [1] deals with His-tagged human recombinant kinase full-length Akt1 (Homo sapiens (Human), UniProt P31749). Kind of assay: Akt1 kinase assay (TR-FRET). Conditions: 10 μM ATP, read-out: Akt1, median IC50. The class given is biochemical. The source says:
Biological Assay 1.0: Akt1 Kinase Assay
Akt1 inhibitory activity of compounds of the present invention was quantified employing the Akt1 TR-FRET assay as described in the following paragraphs.
His-tagged human recombinant kinase full-length Akt1 expressed in insect cells was purchased form Invitrogen (part number PV 3599). As substrate for the kinase reaction the biotinylated peptide biotin-Ahx-KKLNRTLSFAEPG (C-terminus in amide form) was used which can be purchased e.g. from the company Biosynthan GmbH (Berlin-Buch, Germany).
For the assay 50 nl of a 100 fold concentrated solution of the test compound in DMSO was pipetted into a black low volume 384 well microtiter plate (Greiner Bio-One, Frickenhausen, Germany), 2 μl of a solution of Akt1 in assay buffer [50 mM TRIS/HCl pH 7.5, 5 mM MgCl2, 1 mM dithiothreitol, 0.02% (v/v) Triton X-100 (Sigma)] were added and the mixture was incubated for 15 min at 22° C. to allow prebinding of the test compounds to the enzyme before the start of the kinase reaction. Then the kinase reaction was started by the addition of 3 μl of a solution of adenosine-tri-phosphate (ATP, 16.7 μM=>final conc. in the 5 μl assay volume is 10 μM) and substrate (1.67 μM=>final conc. in the 5 μl assay volume is 1 μM) in assay buffer and the resulting mixture was incubated for a reaction time of 60 min at 22° C. The concentration of Akt1 in the assay was adjusted depending of the activity of the enzyme lot and was chosen appropriate to have the assay in the linear range, typical enzyme concentrations were in the range of about 0.05 ng/μl (final conc. in the 5 μl assay volume).
The reaction was stopped by the addition of 5 μl of a solution of HTRF detection reagents (200 nM streptavidine-XL665 [Cisbio] and 1.5 nM anti-phosho-Serine antibody [Millipore, cat. #35-001] and 0.75 nM LANCE Eu-W 1024 labeled anti-mouse IgG antibody [Perkin Elmer]) in an aqueous EDTA-solution (100 mM EDTA, 0.1% (w/v) bovine serum albumin in 50 mM HEPES/NaOH pH 7.5).
The resulting mixture was incubated 1 h at 22° C. to allow the binding of the biotinylated phosphorylated peptide to the streptavidine-XL665 and the antibodies. Subsequently the amount of phosphorylated substrate was evaluated by measurement of the resonance energy transfer from the anti-mouse-IgG-Eu-Chelate to the streptavidine-XL665. Therefore, the fluorescence emissions at 620 nm and 665 nm after excitation at 350 nm was measured in a HTRF reader, e.g. a Rubystar (BMG Labtechnologies, Offenburg, Germany) or a Viewlux (Perkin-Elmer). The ratio of the emissions at 665 nm and at […] was taken as the measure for the amount of phosphorylated substrate. The data were normalised (enzyme reaction without inhibitor=0% inhibition, all other assay components but no enzyme=100% inhibition).

The subject of another assay is p-4E-BP1 at T70. Put plainly: Cellular p-4E-BP1-T70 assay in KPL-4 cells. The assay is classed as cell-based. Particulars: Homo sapiens, KPL4; KPL-4 breast tumour cell line, 2 hours treatment; read-out: P4EBP1-T70 median IC50. As for the experimental part: The molecular mechanism of action was investigated in a set of experiments to assess the inhibition of the PI3K-AKT-mTOR pathway in responsive cell lines such as KPL-4 breast tumour cell line (PIK3CA^H1047R, HER2^O/E and hormone independent). The phospho-substrates of PI3K-AKT-mTOR axis were used as the readouts to reflect pathway inhibition. Cells were seeded at 60-80% confluency per well in 96-well cell culture plates. After overnight incubation at 37° C. 5% CO2, cells were treated with compounds and vehicle at 37° C. for 2 hours. Thereafter, cells were lysed in 150 μl lysis buffer and the levels of phospho-AKT at T308 and S473 and p-4E-BP1 at T70 sites were determined with the corresponding AlphaScreen® SureFire® assay kits (Perkin Elmer: 4E-BP1 Assay Kit Cat # TRG4E2S10K; Akt 1/2/3 p-Ser 473 #TGRA4S500 and Akt 1/2/3 p-Thr 308 #TGRA3S500 as well as IgG detection Kit #6760617M) as described in the manuals. All measurements where at least done in duplicates and confirmed by independent repetition. Alternatively pAKT-S473 was measured using the “Akt Duplex” of the MULTI-SPOT® Assay System (Fa. Meso Scale Discovery, Cat# N41100B-1) following manufacturers instructions. Each assay used 20 μg of protein extract and measured total AKT and p-AKT content simultaneously in one well. All measurements where at least done in duplicates and confirmed by independent repetition. Values for P-AKT are expressed as percentage of P-AKT level compared to total-AKT content of the extracts.

Assay [2] relates to MCF-7 breast tumour cell line. Kind of assay: Tumor cell proliferation assay (CellTiter-Glo, 72 h), MCF-7. The assay is classed as cell-based. Particulars: Homo sapiens, MCF7, 72 h drug exposure; for inhibition at 1.67 µM: read-out: MCF-7 median inhibition at 1.67 μM (%). The protocol:
Biological Assay 4.0: Tumor Cell Proliferation Assays
Compounds were tested in a cell-based assay that measures the capacity of the compounds to inhibit tumour cell proliferation following a 72 h drug exposure. Cell viability is determined using CellTiter-Glow® (CTG, Promega, cat# G7571/2/3). The CellTiter-Glo® Luminescent Cell Viability Assay is a homogeneous method to determine the number of viable cells in culture. Detection is based on using the luciferase reaction to measure the amount of ATP from viable cells. The amount of ATP in cells correlates with cell viability. Within minutes after a loss of membrane integrity, cells lose the ability to synthesize ATP, and endogenous ATPases destroy any remaining ATP; thus the levels of ATP fall precipitously.
Cells were plated at 3000-5000 cells/well (depending on the cell lines) in 90 μL growth medium on MTPs (Corning; #3603, black plate, clear flat bottom). For each cell line assayed, cells were plated onto a separate plate for determination of […] at t=0 hour and t=72 hour time points. Following overnight incubation at 37° C., chemiluminescence values for the t=0 samples were determined after adding 10 μl medium and 100 μl CTG solution according to manufacture protocol. Plates for the t=72 hour time points were treated with compounds diluted into growth medium at ten times final concentration added in 10 μL to the cell culture plate. Cells were then incubated for 72 hours at 37° C. Chemiluminescence values for the t=72 hour samples were determined. […] Experiments were controlled using a reference compound as standard.
Preferred compounds of the present invention show in this assay an inhibition of cell growth of cell lines such as the KPL-4 breast cancer cell line and the MCF-7 breast tumour cell line ([…], hormone dependent) with a median IC50 of <10 μM, more preferably, median IC50≦1 μM.
In general terms: ATP-based viability assays read luminescence as a measure of living cells.

The text below walks through data of patent US9260435B2, “Substituted imidazopyrazines as Akt kinase inhibitors” (Bayer Intellectual Property GmbH, priority 2012, dated 2016).

Sequence of His-tagged human recombinant kinase full-length Akt1 (P31749 whole entry): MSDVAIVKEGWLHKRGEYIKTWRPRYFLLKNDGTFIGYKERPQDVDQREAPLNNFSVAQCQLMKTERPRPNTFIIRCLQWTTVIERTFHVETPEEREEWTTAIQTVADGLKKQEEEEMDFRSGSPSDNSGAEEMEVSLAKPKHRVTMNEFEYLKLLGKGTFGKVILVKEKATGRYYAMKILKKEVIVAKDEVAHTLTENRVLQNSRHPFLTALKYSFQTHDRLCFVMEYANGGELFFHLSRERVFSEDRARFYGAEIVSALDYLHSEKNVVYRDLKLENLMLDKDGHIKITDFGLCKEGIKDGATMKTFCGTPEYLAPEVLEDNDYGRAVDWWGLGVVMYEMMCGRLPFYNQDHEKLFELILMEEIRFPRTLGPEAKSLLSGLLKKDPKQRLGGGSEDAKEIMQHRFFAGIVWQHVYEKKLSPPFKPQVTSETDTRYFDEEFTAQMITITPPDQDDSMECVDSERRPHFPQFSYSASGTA

`NC(=O)c1cn2c(-c3ccccc3)c(-c3ccc(C4(N)CCC4)cc3)nc2cn1` [Example 6, 2-[4-(1-Aminocyclobutyl)phenyl]-3-phenylimidazo[1,2-a]pyrazine-6-carboxamide]: the half-maximal inhibitory concentration (IC50) – broadly, the midpoint of a concentration-inhibition curve – amounted to 110 nM in assay [1], 18 nM in the assay with p-4E-BP1 at T70 and 1100 nM in assay [2]. Further, the inhibition (commonly the change of the read-out against control, counted positive when it falls) at 1.67 µM in assay [2] came to 57.3%.

On to `COc1nc(Br)cn2c(-c3ccccc3)c(-c3ccc(C4(N)CCC4)cc3)nc12` [Example 3, 1-[4-(6-Bromo-8-methoxy-3-phenylimidazo[1,2-a]pyrazin-2-yl)phenyl]cyclobutanamine], for which the IC50 in assay [1] worked out at 22 nM; in the assay on p-4E-BP1 at T70, 1400 nM; in assay [2] it was 1700 nM. The inhibition at 1.67 µM in assay [2] is 46.2%.

With `COC(=O)c1cn2c(-c3ccccc3)c(-c3ccc(C4(N)CCC4)cc3)nc2c(OC)n1` [Example 7, Methyl 2-[4-(1-aminocyclobutyl)phenyl]-8-methoxy-3-phenylimidazo[1,2-a]pyrazine-6-carboxylate], the IC50 in assay [1] is 64 nM; in the assay on p-4E-BP1 at T70, 43 nM; in assay [2] it was 420 nM. Further, the inhibition at 1.67 µM in assay [2] amounted to 72.3%.

Consider `COc1nc(C(N)=O)cn2c(-c3ccccc3)c(-c3ccc(C4(N)CCC4)cc3)nc12` [Example 8, 2-[4-(1-Aminocyclobutyl)phenyl]-8-methoxy-3-phenylimidazo[1,2-a]pyrazine-6-carboxamide], for which the results for the IC50 (in assay [1]; in the assay on p-4E-BP1 at T70; in assay [2]) were 29 nM, 18 nM and 270 nM, respectively. Further, the inhibition at 1.67 µM in assay [2] was determined as 73.1%.

Turning to `CCc1cn2c(-c3ccccc3)c(-c3ccc(C4(N)CCC4)cc3)nc2c(OC)n1` [Example 4, 1-[4-(6-Ethyl-8-methoxy-3-phenylimidazo[1,2-a]pyrazin-2-yl)phenyl]cyclobutanamine], the figures for the IC50 (in assay [1]; in the assay on p-4E-BP1 at T70; in assay [2]) were 110 nM, 380 nM and 850 nM, respectively. The inhibition at 1.67 µM in assay [2] was 72.4%.

Turning to `Cc1cn2c(-c3ccccc3)c(-c3ccc(C4(N)CCC4)cc3)nc2c(C)n1` [Example 2, 1-[4-(6,8-Dimethyl-3-phenylimidazo[1,2-a]pyrazin-2-yl)phenyl]-cyclobutanamine], the 50% inhibitory concentration (IC50) in assay [1] came out at 61 nM; in the assay on p-4E-BP1 at T70 it was 1100 nM; in assay [2], 720 nM. Also, the inhibition at 1.67 µM in assay [2] was found to be 70.8%.
